Test results from ChEMBL document CHEMBL1142434, “Novel prostaglandin D synthase inhibitors generated by fragment-based drug design” (J Med Chem, 2008).
pEC50, pIC50: −log10 of the molar value.

Tested on: LAD2
Assay: Inhibition of PMA/ionomycin-induced PDG2 synthesis in human LAD2 cells
Format: functional, cell-based
c1ccc(-c2ncc(-c3cc[nH]n3)s2)cc1 gave a pEC50 of 5.77.

Tested on: not listed separately
Assay: Toxicity against PMA/ionomycin treated human LAD2 cells assessed as cellular viability
Format: cell-based
With c1ccc(-c2ncc(-c3cc[nH]n3)s2)cc1 the Activity was “Non-toxic”.

Biological target: Hematopoietic prostaglandin D synthase (Homo sapiens, UniProt O60760)
Sequence (O60760 whole entry): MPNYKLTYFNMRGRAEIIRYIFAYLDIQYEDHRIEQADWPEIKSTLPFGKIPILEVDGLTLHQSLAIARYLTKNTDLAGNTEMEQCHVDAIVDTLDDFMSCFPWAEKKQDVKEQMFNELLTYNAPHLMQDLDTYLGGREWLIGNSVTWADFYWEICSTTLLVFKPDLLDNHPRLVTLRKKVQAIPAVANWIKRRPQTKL
Assay: Inhibition of glutathione-S-transferase activity of prostaglandin D2 synthase
Molecule COC(=O)c1ccc(-c2nnc(-c3ccncc3)[nH]2)nc1 has a pIC50 of 5.82.
With CCOC(=O)c1cc(O)c(-c2ccccc2)nn1 the pIC50 was 4.35.
With Cc1cc(C)c(-c2cc[nH]n2)[nH]1 the pIC50 was 4.58.
In the case of Cc1ccc(NC(=O)c2cc(-c3ccccc3)ns2)cc1NC(=O)c1cccc(CN2CCN(C)CC2)c1, the pIC50 was 7.12.
Work on O=C1c2ccccc2-c2nnc(-c3ccc(O)cc3)cc21 yielded a pIC50 of 5.42.
For Cc1ccc(-c2cc[nH]n2)cn1, the pIC50 was 4.46.
Molecule Oc1c(Cl)cc(Cl)cc1-c1cc[nH]n1 has a pIC50 of 4.76.
Molecule COc1ccc(C(=O)CBr)c2ccccc12 has a pIC50 of 4.91.
Work on COc1ccc(-c2cnn(-c3ccccc3)c2N)cc1OC yielded a pIC50 of 4.48.
Work on Cc1ccc(-c2cc3c(nn2)-c2ccccc2C3=O)cc1 yielded a pIC50 of 5.42.
With COc1ccccc1-c1csc(Nc2ccc(C(=O)O)cc2)n1 the pIC50 was 6.00.
